One compound from ChEMBL document CHEMBL1150631, “New chemical constituents of Euphorbia quinquecostata and absolute configuration assignment by a convenient Mosher ester procedure carried out in NMR tubes” (J Nat Prod, 2002) can be followed below.

The nature of the assay: Inhibition of 12-O-tetradecanoylphorbol 13-acetate-induced transformation of mouse JB6 cells after 14 days by soft agar transformation assay. The assay is classed as functional, cell-based.

≈ marks a conversion by molar mass, not a printed value.

Broadly, the IC50 is the concentration needed to halve the response being measured. Read a low IC50 as higher potency.

In the case of `COc1ccc(/C=C/C=O)cc1OC` [3,4-DIMETHOXY CINNAMALDEHYDE], the half-inhibitory concentration (IC50) amounted to 2.3 µg/mL (≈ 12 µM).
